Measurements published in article PMC12281424, “A Rac-specific competitive inhibitor of guanine nucleotide binding reduces metastasis in triple-negative breast cancer” (Cell Reports Medicine, 2025).

Assays:
cSRC(h) = cSRC(h) (Homo sapiens, UniProt P12931); assay: Kinase Profiler; type: biochemical
Experimental: (§1) The kinase profiler was performed by the company Eurofins (Discovery, Panlab and Cerep).

SAPK2a(T106M)(h) = SAPK2a(T106M)(h) (Homo sapiens, UniProt Q16539, T106M); assay: Kinase Profiler; type: biochemical
Experimental: as §1

RAC1 = RAC1 (Homo sapiens, UniProt P63000); assay: Surface plasmon resonance; type: binding; design: purchased Cytoskeleton RH01
Experimental: SPR immobilization was performed at 25°C. RAC1, RHOA and CDC42 purified proteins (respectively […] and CD01, Cytoskeleton) were diluted to 5 μg/mL in Na^+ acetate buffer (pH 5.0) and injected into sensor chip CM5 (GE Healthcare) in a Biacore T200 (GE Healthcare) that was activated with NHS/EDC buffer. Approximately 5,000 response units of the purified protein were immobilized on the biosensor chip. Biosensor chips were blocked by an injection of 1 mM ethanolamine (pH 8.5). SPR analysis was performed at 25°C in HBSEP running buffer (5% DMSO) with or without EDTA (20 mM). A41 compound was injected over the RAC1, RHOA or CDC42 functionalized surface in concentration range from 0 to 25μM. Association and dissociation phases were monitored during 60s and 300s, respectively.

STK32B(h) = STK32B(h) (Homo sapiens, UniProt Q9NY57); assay: Kinase Profiler; type: biochemical
Experimental: as §1

EphA5(h) = EphA5(h) (Homo sapiens, UniProt P54756); assay: Kinase Profiler; type: biochemical
Experimental: (§2) Blood cell counts, kinase profiler, safety screen, bacterial cytotoxicity, Ames, micronucleus assays were performed by the company Eurofins (France). The kinase profiler was performed by the company Eurofins (Discovery, Panlab and Cerep).

IRAK4(h) = IRAK4(h) (Homo sapiens, UniProt Q9NWZ3); assay: Kinase Profiler; type: biochemical
Experimental: as §1

BTK(R28H)(h) = BTK(R28H)(h) (Homo sapiens, UniProt Q06187, R28H); assay: Kinase Profiler; type: biochemical
Experimental: as §2

Muscarinic M2 = Muscarinic M2 (Homo sapiens, UniProt P08172); assay: Safety screen; type: binding
Experimental: Blood cell counts, kinase profiler, safety screen, bacterial cytotoxicity, Ames, micronucleus assays were performed by the company Eurofins (France).

CaMKK2(h) = CaMKK2(h) (Homo sapiens, UniProt Q96RR4); assay: Kinase Profiler; type: biochemical
Experimental: as §1

CaMKK1(h) = CaMKK1(h) (Homo sapiens, UniProt Q8N5S9); assay: Kinase Profiler; type: biochemical
Experimental: as §1

TA1535 = assay: Ames fluctuation test (5th group); type: cell-based
Description: Data S3. Ames-fluctuation assay-A41.
Test Concentration Count Positive Significance Fisher Exact Test

[1] = In vivo toxicity, chronic daily intraperitoneal injection; design: species or system mouse; details: 1, 10 and 25 mg/kg daily i.p. for 1 month
Experimental: In order to assess the anti-tumor properties of A41 in vivo, we first would like to make sure of the safety and the absence of major off-target effects of A41. […] In vivo safety has been addressed by monitoring various biological parameters in mice chronically receiving daily intraperitoneal A41 injection (1, 10, and 25 mg/kg) for 1 month. […] We then analyzed pharmacokinetics and tissue distribution of A41 following intraperitoneal injection of A41 (25 mg/kg). A41 rapidly reached its peak plasma concentration (∼15 min, 15.056 ± 0.5 μg/mL), which then declined over 2–3 h (Figure S7). A41 was detected in the liver, heart, and lungs.
Supplementary Fig. 6: In vivo A41 toxicity. (a) Effect of chronic administration of A41 at the indicated concentrations by daily intraperitoneal injections in mice on weight gain glycemia. (b) and (c), Glycemia (b) and plasmatic concentration of transaminases (ALAT and ASAT), albumin, urea, creatinine and total protein in mice after of 1 month of chronic administration of A41 at indicated concentrations (c). N=6-7

PhKγ1(h) = PhKγ1(h) (Homo sapiens, UniProt Q16816); assay: Kinase Profiler; type: biochemical
Experimental: as §2

EphA8(h) = EphA8(h) (Homo sapiens, UniProt P29322); assay: Kinase Profiler; type: biochemical
Experimental: as §2

SIK2(h) = SIK2(h) (Homo sapiens, UniProt Q9H0K1); assay: Kinase Profiler; type: biochemical
Experimental: as §1

[2] = biological target: ATPase, Na+/K+, Heart, Pig (Sus scrofa, UniProt P05024); assay: Safety screen; type: biochemical
Experimental: as §2

IRR(h) = IRR(h) (Homo sapiens, UniProt P14616); assay: Kinase Profiler; type: biochemical
Experimental: as §2

GRK1(h) = GRK1(h) (Homo sapiens, UniProt Q15835); assay: Kinase Profiler; type: biochemical
Experimental: as §2

STK25(h) = STK25(h) (Homo sapiens, UniProt O00506); assay: Kinase Profiler; type: biochemical
Experimental: as §1

Opiate κ(OP2, KOP) = Opiate κ(OP2, KOP) (Homo sapiens, UniProt P41145); assay: Safety screen; type: binding
Experimental: as §2

TSSK3(h) = TSSK3(h) (Homo sapiens, UniProt Q96PN8); assay: Kinase Profiler; type: biochemical
Experimental: as §1

SBK1(h) = SBK1(h) (Homo sapiens, UniProt Q52WX2); assay: Kinase Profiler; type: biochemical
Experimental: as §1

CHK2(R145W)(h) = CHK2(R145W)(h) (Homo sapiens, UniProt O96017, R145W); assay: Kinase Profiler; type: biochemical
Chain of CHK2(R145W)(h) (O96017 whole entry R145W): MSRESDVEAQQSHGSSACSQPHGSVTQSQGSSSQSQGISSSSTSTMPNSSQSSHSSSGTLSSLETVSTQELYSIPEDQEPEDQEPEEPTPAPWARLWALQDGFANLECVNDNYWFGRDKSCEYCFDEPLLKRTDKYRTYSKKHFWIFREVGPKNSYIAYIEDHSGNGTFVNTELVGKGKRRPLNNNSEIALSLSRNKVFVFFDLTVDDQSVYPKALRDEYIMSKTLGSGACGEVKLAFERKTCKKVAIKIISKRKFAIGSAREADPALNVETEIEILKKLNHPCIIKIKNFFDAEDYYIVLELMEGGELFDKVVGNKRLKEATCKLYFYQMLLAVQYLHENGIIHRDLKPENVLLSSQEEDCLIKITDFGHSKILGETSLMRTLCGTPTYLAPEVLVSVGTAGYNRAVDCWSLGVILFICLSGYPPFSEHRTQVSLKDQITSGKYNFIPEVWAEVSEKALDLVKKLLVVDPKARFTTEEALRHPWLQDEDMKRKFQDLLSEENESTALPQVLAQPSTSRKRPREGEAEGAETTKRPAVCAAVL
Experimental: as §1

Chain of BTK(R28H)(h) (Q06187 whole entry R28H): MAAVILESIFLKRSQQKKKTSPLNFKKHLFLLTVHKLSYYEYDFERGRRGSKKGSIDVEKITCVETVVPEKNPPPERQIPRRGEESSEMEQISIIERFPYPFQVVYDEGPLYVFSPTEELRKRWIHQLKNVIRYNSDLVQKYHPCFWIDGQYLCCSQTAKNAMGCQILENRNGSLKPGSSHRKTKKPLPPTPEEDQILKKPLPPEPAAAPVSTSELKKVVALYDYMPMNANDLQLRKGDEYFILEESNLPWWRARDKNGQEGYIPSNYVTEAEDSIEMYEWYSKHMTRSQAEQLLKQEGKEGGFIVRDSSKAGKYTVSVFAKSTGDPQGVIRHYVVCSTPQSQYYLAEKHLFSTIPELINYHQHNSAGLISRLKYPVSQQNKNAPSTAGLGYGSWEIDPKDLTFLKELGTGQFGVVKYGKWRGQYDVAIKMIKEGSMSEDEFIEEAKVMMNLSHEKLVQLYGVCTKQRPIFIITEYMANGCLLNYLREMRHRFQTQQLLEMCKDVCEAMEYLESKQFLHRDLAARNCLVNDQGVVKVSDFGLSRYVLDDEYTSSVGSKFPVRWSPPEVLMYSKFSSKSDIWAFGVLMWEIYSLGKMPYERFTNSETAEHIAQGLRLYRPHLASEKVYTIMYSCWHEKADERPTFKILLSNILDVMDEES
Chain of EphA5(h) (P54756 25-1037): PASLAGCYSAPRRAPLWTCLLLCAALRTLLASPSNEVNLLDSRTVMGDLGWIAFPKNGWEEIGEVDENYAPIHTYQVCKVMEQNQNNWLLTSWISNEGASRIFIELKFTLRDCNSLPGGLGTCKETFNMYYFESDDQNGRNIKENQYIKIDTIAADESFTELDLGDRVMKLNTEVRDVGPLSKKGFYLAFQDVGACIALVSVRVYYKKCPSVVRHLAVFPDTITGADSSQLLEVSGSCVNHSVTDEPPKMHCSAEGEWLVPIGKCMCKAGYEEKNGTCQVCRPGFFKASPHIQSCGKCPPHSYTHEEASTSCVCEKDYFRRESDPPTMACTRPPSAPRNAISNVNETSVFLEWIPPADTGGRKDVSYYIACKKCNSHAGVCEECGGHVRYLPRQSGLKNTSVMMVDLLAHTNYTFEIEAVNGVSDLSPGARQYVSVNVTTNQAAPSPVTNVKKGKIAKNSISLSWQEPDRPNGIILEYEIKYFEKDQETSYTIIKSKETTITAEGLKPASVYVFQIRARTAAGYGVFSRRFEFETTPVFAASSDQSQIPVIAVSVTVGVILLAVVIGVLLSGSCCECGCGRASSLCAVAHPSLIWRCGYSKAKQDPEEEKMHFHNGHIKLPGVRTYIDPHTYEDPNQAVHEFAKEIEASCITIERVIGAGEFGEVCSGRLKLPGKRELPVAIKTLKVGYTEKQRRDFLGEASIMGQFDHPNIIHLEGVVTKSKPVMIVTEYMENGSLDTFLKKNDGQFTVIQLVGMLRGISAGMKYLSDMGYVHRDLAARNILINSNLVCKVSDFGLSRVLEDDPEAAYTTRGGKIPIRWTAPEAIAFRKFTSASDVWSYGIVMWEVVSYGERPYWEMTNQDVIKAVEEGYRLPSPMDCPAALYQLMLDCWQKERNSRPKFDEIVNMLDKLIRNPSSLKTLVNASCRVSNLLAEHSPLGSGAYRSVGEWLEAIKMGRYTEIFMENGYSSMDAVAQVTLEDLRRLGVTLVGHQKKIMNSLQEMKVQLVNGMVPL
Chain of SIK2(h) (Q9H0K1 whole entry): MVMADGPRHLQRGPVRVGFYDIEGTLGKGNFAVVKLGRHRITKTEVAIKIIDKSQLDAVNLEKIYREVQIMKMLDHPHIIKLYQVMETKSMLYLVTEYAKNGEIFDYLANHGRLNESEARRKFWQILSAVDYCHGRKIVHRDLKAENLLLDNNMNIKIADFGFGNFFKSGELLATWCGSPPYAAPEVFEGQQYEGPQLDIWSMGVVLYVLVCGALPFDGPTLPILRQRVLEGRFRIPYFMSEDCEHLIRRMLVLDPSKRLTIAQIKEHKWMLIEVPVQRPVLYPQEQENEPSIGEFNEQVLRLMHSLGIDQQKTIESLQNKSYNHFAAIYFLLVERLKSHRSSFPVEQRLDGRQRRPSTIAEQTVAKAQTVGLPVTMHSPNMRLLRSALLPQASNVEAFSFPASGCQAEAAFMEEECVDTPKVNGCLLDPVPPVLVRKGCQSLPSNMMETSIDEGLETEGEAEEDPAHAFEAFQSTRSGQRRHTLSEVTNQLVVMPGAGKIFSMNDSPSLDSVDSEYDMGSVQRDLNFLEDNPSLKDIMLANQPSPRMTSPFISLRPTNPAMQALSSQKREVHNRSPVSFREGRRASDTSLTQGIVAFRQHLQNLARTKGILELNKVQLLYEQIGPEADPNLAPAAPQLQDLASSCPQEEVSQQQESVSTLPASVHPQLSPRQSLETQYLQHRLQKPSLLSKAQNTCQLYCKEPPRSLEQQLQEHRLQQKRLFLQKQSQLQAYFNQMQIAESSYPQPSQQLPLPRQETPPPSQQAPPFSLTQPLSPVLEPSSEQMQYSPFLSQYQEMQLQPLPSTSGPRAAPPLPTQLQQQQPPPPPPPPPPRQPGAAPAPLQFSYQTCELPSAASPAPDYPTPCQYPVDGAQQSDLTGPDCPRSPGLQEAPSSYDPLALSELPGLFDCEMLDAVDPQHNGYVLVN
Chain of EphA8(h) (P29322 28-1005): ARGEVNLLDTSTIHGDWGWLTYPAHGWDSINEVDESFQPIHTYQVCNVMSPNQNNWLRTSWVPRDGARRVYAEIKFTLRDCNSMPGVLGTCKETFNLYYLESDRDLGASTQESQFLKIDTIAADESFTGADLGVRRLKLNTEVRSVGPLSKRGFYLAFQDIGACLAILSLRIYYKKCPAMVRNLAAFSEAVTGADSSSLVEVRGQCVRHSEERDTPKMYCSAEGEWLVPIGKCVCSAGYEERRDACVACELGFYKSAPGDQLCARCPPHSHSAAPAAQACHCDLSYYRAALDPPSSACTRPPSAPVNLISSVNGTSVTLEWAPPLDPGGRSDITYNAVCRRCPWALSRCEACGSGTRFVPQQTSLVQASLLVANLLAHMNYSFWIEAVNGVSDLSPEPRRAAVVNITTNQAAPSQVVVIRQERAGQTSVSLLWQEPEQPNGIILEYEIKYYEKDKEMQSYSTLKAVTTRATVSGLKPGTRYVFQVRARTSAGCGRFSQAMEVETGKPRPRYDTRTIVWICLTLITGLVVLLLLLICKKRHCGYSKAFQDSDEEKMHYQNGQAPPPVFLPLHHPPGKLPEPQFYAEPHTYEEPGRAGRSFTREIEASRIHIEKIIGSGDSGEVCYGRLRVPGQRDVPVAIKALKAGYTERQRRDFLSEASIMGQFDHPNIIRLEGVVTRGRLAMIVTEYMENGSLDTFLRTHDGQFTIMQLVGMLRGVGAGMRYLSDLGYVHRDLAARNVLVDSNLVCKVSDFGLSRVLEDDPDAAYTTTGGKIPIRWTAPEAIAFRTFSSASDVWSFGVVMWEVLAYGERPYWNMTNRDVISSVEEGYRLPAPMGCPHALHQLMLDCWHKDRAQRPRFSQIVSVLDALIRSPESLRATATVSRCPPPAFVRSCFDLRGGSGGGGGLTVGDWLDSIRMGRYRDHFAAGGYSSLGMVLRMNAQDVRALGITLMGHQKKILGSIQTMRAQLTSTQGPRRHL
Chain of Muscarinic M2 (P08172 whole entry): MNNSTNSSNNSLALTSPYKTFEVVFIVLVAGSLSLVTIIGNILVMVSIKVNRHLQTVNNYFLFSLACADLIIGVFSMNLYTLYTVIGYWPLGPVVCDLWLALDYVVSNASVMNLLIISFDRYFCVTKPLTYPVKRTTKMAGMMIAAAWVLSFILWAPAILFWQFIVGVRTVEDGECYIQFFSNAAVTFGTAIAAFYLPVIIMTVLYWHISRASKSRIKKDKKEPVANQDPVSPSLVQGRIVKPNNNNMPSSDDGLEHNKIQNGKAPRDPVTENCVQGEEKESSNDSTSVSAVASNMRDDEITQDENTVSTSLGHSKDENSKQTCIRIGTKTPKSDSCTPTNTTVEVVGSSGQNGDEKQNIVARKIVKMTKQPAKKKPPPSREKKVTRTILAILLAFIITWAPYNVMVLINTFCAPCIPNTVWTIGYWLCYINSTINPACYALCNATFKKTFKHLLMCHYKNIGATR
Chain of STK32B(h) (Q9NY57 whole entry): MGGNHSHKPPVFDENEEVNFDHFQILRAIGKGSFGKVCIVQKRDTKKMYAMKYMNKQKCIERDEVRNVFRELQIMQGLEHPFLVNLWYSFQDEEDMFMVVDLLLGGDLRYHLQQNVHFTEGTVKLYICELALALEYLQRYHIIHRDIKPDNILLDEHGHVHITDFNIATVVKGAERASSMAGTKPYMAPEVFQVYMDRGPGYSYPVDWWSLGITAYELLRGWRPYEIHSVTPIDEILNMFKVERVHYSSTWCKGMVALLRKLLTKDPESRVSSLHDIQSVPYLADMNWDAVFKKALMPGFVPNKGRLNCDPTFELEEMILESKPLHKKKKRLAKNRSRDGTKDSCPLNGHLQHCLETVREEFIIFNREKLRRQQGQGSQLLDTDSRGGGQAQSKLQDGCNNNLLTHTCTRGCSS

COc1ccc(OC)c(NS(=O)(=O)c2ccc(NC(=O)CCSc3ccc(C)cc3)cc2)c1 [Compound A41]
Activity(%) (cSRC(h)): 111% | Activity(%) (SAPK2a(T106M)(h)): 98% | binding to RAC1 (RAC1; in the presence of 20 mM EDTA): strongly increased | Kd (RAC1; purified RAC1-GDP, without EDTA): 30 nM | Activity(%) (STK32B(h)): 105% | Activity(%) (EphA5(h)): 110% | Activity(%) (IRAK4(h)): 99% | Activity(%) (BTK(R28H)(h)): 102% | % inh. (Muscarinic M2): 12% | Activity(%) (CaMKK2(h)): 110% | Activity(%) (CaMKK1(h)): 95% | Count Positive (# of wells) (TA1535; - S9, 1.0E-04 M): 0 | Count Positive (# of wells) (TA1535; - S9, 1.0E-05 M): 2 | Count Positive (# of wells) (TA1535; - S9, 5.0E-05 M): 0 | Count Positive (# of wells) (TA1535; - S9, 5.0E-06 M): 0 | biological parameters incl. weight [1]: None of the parameters measured, including the weight of the mice, was affected | deaths [1]: No deaths | visual inspection (suffering, behavior) [1]: no sign of suffering or abnormal behavior | Activity(%) (PhKγ1(h)): 102% | Activity(%) (EphA8(h)): 112% | Activity(%) (SIK2(h)): 90% | % inh. [2]: -15% | Activity(%) (IRR(h)): 118% | Activity(%) (GRK1(h)): 103% | Activity(%) (STK25(h)): 98% | % inh. (Opiate κ(OP2, KOP)): 10% | Activity(%) (TSSK3(h)): 104% | Activity(%) (SBK1(h)): 101% | Activity(%) (CHK2(R145W)(h)): 92%
